Structures can show the parent of a compound that is named as a salt.

Test [1] addresses T1, native human transporter glyt1 (Homo sapiens, UniProt P48067).
T1 construct: expressing the native human transporter glyt1; endogenous in cells; host or cells: SK-N-MC cells (human neuroepithelial cells)
T1 sequence (P48067 1-706): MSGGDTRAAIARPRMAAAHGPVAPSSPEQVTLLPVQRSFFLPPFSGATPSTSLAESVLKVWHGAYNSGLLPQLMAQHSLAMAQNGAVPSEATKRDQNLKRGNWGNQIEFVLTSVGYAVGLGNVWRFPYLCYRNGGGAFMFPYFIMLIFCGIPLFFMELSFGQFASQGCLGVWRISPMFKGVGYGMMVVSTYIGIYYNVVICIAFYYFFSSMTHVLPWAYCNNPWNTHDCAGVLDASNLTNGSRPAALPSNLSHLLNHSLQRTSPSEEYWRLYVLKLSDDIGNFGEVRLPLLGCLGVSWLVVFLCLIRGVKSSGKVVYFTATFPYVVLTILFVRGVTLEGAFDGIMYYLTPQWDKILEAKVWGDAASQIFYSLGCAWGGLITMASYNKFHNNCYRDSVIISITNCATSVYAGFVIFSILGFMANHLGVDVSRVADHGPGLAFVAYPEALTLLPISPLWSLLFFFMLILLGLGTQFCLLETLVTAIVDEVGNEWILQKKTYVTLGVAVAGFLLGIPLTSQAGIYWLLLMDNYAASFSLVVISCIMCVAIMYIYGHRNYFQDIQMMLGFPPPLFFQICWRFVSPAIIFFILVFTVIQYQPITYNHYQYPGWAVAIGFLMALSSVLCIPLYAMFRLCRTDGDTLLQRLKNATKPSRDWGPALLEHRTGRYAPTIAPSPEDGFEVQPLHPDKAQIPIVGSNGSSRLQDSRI
Kind of test: Transport of glycine ([14C]glycine capture) in SK-N-MC cells expressing the native human transporter glyt1. The test is classed as cell-based. The following applies: 10 μM [14C]glycine, 10 min at 37° C., pH 7.4, read-out: IC50, concentration which reduces by 50% the specific capture of glycine. Here is the method: Study of the Transport of Glycine in SK-N-MC Cells Expressing the Native Human Transporter Glyt1.
The capture of [^14C]glycine is studied in SK-N-MC cells (human neuroepithelial cells) expressing the native human transporter glyt1 by measuring the radioactivity incorporated in the presence or in the absence of the test compound. The cells are cultured in a monolayer for 48 h in plates pretreated with fibronectin at 0.02%. On the day of the experiment, the culture medium is removed and the cells are washed with a Krebs-HEPES ([4-(2-hydroxyethyl)piperazine]1-ethanesulfonic acid) buffer at pH 7.4. After a preincubation of 10 min at 37° C. in the presence either of buffer (control batch), or of test compound at various concentrations, or of 10 mM glycine (determination of the nonspecific capture), 10 μM [^14C]glycine (specific activity 112 mCi/mmol) are then added. The incubation is continued for 10 min at 37° C., and the reaction is stopped by 2 washes with a Krebs-HEPES buffer at pH 7.4. The radioactivity incorporated by the cells is then estimated after adding 100 μl of liquid scintillant and stirring for 1 h. The counting is performed on a Microbeta Tri-lux™ counter. The efficacy of the compound is determined by the IC50, the concentration of the compound which reduces by 50% the specific capture of glycine, defined by the difference in radioactivity incorporated by the control batch and the batch which received the glycine at 10 mM.

For another test, the target named is T2, transporter glyt2 (Mus musculus, UniProt Q761V0).
T2 construct: from tissue; host or cells: mouse spinal cord homogenate (Iffa Crédo OF1 male mice)
T2 sequence (Q761V0 1-799): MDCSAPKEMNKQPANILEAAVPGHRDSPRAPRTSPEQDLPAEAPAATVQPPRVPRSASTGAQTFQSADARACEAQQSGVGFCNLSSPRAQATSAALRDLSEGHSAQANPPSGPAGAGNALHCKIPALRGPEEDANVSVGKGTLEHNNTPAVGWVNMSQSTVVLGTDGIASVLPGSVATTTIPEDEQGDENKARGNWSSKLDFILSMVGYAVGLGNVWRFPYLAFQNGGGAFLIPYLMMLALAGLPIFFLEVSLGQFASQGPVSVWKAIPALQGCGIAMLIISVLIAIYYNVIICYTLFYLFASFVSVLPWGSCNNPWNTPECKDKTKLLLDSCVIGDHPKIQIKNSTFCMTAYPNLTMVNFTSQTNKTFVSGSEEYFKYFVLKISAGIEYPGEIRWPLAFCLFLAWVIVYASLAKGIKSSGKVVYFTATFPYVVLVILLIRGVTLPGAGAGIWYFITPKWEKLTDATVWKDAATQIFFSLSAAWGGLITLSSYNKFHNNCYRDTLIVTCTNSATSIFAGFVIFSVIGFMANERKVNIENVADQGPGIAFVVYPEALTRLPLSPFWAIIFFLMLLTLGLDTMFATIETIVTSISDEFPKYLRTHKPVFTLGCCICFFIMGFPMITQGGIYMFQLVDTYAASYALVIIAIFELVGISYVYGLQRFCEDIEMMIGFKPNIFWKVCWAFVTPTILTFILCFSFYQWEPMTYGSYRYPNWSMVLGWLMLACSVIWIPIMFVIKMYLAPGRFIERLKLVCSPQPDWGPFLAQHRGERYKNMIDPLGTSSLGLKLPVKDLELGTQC
Description: Transport of glycine ([14C]glycine capture) in mouse spinal cord homogenate. The following applies: 10 μM [14C]glycine, 10 min at 25° C., pH 7.4, read-out: IC50, concentration reducing by 50% the specific capture of glycine. The test is classed as biochemical. From the text: Study of the Transport of Glycine in Mouse Spinal Cord Homogenate
The capture of [^14C]glycine by the transporter glyt2 is studied in mouse spinal cord homogenate by measuring the radioactivity incorporated in the presence or in the absence of the compound to be studied.
After the animals have been humanely killed (Iffa Crédo OF1 male mice weighing 20 to 25 g on the day of the experiment), the spinal cord of each animal is rapidly removed, weighed and stored on ice. The samples are homogenized in a Krebs-HEPES ([4-(2-hydroxyethyl)piperazine]1-ethanesulfonic acid) buffer, pH 7.4, at a rate of 25 ml/g of tissue.
50 μl of homogenate are preincubated for 10 min at 25° C. in the presence of Krebs-HEPES buffer, pH 7.4 and of compound to be studied at various concentrations, or of 10 mM glycine in order to determine the nonspecific capture. The [^14C]glycine (specific activity=112 mCi/mmol) is then added for 10 min at 25° C. at the final concentration of 10 μM. The reaction is stopped by filtration under vacuum and the radioactivity is estimated by solid scintillation by counting on a Microbeta Tri-lux™ counter.
The efficacy of the compound is determined by the concentration IC50 capable of reducing by 50% the specific capture of glycine, defined by the difference in radioactivity incorporated by the control batch and the batch which received the 10 mM glycine.

For `O=C(NC(c1ccccc1)C1CC2CCN1CC2)c1cccc(C(F)(F)F)c1Cl` (stereo not drawn) [Compound No. 3, threo-2-Chloro-N-[(1-azabicyclo[2.2.2]oct-2-yl)phenyl-methyl]-3-trifluoromethylbenzamide hydrochloride 1:1], the IC50 in test [1] was found to be 0.017 µM.
Same read-out and setting: the figure for `O=C(NC(c1ccccc1)C1CC2CCN1CC2)c1c(Cl)ccc(C(F)(F)F)c1Cl` (stereo not drawn) [Compound No. 4, threo-2,6-Dichloro-N-[(1-azabicyclo[2.2.2]oct-2-yl)phenylmethyl]-3-trifluoromethylbenzamide hydrochloride 1:1] is 0.004 µM; for `C=CC1CN2CCC1CC2C(NC(=O)c1cccc(C(F)(F)F)c1Cl)c1ccnc2ccccc12` [Compound No. 14, 2-Chloro-N-(8α,9S)cinchonan-9-yl)-3-trifluoromethyl-benzamide hydrochloride 2:1] it is 0.07 µM.
Consider `O=C(N[C@@H](c1ccccc1)[C@@H]1CC2CCN1CC2)c1c(Cl)ccc(C(F)(F)F)c1Cl` [Compound No. 17], for which the IC50 in test [1] was 0.001 µM; at transporter glyt2 it was 0.69 µM.
With `O=C(NC(c1ccc(F)cc1)C1CC2CCN1CC2)c1c(Cl)ccc(C(F)(F)F)c1Cl` (stereo not drawn) [Compound No. 26, threo-N-[1-Azabicyclo[2.2.2]oct-2-yl(4-fluorophenyl)-methyl]-2,6-dichloro-3-(trifluoromethyl)benzamide hydrochloride 1:1], in test [1], the IC50 is 0.07 µM.
